Reference: US20150071918A1, “PEPTIDES FOR THE TREATMENT OF CANCER” (H. LEE MOFFITT CANCER CENTER AND RESEARCH INSTITUTE, INC., priority 2012, published 2015)
Entries after “also recorded” stand apart in the source; their conditions may differ. *1 amine or outer side, *2 acyl side, *3 side chain or, on linkers, in order; H or OH if unused. Where a SMILES comes first, the peptide text is derived from it. Bridges are numbered along the chain shown (N, C = ends). [ ]: non-standard residue; d: D form. The star is where a group is joined. dProlinol(O-CH2CO) = O=C(COC[C@H]1CCCN1[*:1])[*:2]; N(2-Aminoethyl)Gly = O=C(CN(CCN[*:3])[*:1])[*:2]; Nle = CCCC[C@H](N)C(=O)O; Ms = CS(=O)(=O)*

Key:
U937 = test: HM-27 induced cell death in AML cell line, TO-PRO-3 staining and FACS; assay type: cell-based
Method: (§1) FIGS. 42A-42B. […] U937, HL-60 and NB4 cells were treated with varying doses of HM-27 for 24 hr and cell death was determined as described in Materials and Methods. U937 and NB4 cells (150,000) exposed to HM-27 for 24 h were collected and analyzed for Caspase 3 activity using the FITC Active Caspase-3 Apoptosis Kit (BDPharmingen) as per manufacturer's instructions. All figures are a representative of three independent experiments done in triplicates.
(§2) Cells were collected after incubation with HM-27 and analyzed for markers of cell death indicative of either apoptosis, autophagy or necrosis. BM-MNCs were isolated from marrow aspirates of AML patients and normal individuals by Ficoll-Paque centrifugation and further enriched for CD34+ cells using immunomagnetic beads. Cell death was assessed by TO-PRO-3 staining followed by FACS analysis.

NB4 = test: as above; assay type: cell-based
Method: as §1, §2

HL-60 = test: as above; assay type: cell-based
Method: as §1, §2

[1] = Weight of mice and overt signs of toxicity under peptide injection; assay type: in vivo; details: mice treated with cyclized HYD1
Method: FIG. 37 is a graph showing the effect of cyclized HYD1 (MTI-101) injection on the weight of mice.
FIG. 49. Cyclic HYD1 (MTI-101) was dosed daily at 8 mpk for the first week and then every other day for 4 weeks. The mice were bled weekly to measure paraprotein as a surrogate for tumor burden. […] Three of five vehicle-treated control animals had died by 35 days which contributes to the large SD.

[2] = system: phospho-ERK and CD44-associated PYK2 in NCI-H929 and U266 MM cells; test: Signal transduction in MM cells (pErk, CD44 immunoprecipitation probed for Pyk2, Src); assay type: cell-based; details: 5 uM H929 and 10 uM U226 cells
Method: FIGS. 55A-55D. […] NCI-H929 and U266 were treated with 5 uM and 10 uM HM-27 respectively for various time points before whole cell lysis in RIPA buffer and probed for pErk and tErk (FIGS. 55A, 55B).
FIGS. 58A-58D. […] MTI-101 activates ERK and Pyk2. Member of these pathways can be utilized as biomarkers of response. In addition, agents that target survival pathways can be used in combination with MTI-101 (data supporting this in AML).
The inventors performed a total membrane binding assay with biotin conjugated HYD1 and NeutrAvidin beads on NCI-H929 and U266 MM cells. Samples were then loaded on an SDS-PAGE gel, trypsin digested, and analyzed by Liquid Chromatography-Mass Spectrometry/Mass Spectrometry (LC-MS/MS). The adhesion receptor CD44 was determined to be among the adhesion receptors that had the most peptide match hits and was confirmed as a valid hit via Western Blot analysis using biotin as a control for non-specific binding. In order to assess the binding between CD44 and HYD1, 96-well NeutrAvidin coated plates were preincubated with biotin-HYD1 before the addition of increasing concentrations of full length recombinant human CD44. For more quantitative binding affinity analysis we produced the human globular ectodomain of CD44 comprising of amino acids 20-178. […]

A549 cells = test: MTT viability, combination index with MEK inhibitor; assay type: cell-based
Method: FIG. 69. MTI-101 plus EGFR inhibitors are synergistic in lung cancer cell lines with EGFR activating mutations, and MTI-101 plus MEK inhibitors are synergistic in cell lines arboring activating RAS or BRAFF mutations. Values indicate average calculated combination index (CI). Additive (CI=1), synergism (CI<1) and, antagonism (CI>1). […] Cell viability was measured by the MTT assay. Data generated were used to calculate a Chou and Talalay Combination Index (CI).

5TGM1 cells = test: 5TGM1 murine in vivo myeloma model, survival; set-up: species or system C57BL/KaLwRij mice; details: 5TGM1 model, dosing 3× weekly for three weeks
Method: FIG. 61B: 5TGM1 model: One million 5TGM1 cells were injected i.v. in C57BL/KaLwRij mice and allowed to engraft for 10 days prior to drug treatment. The dosing scheme for all drugs was 3× weekly for three weeks. Surrogate markers of morbidity include hind leg paralysis and/or lethargic behavior. All mice were euthanatized at day 100.
One million 5TGM1 cells were injected i.v. in C57BL/KaLwRij mice and allowed to engraft for 10 days prior to drug treatment. […] The dosing scheme for melphalan was twice (day 10 and day 14).

[3] = system: normal CD34-positive cells; test: Cell death in CD34+ cells from normal individuals; assay type: cell-based, human; details: 24 hours
Method: (§3) FIG. 45. Primary CD34+AML cells are sensitive to HM-27 (MTI-101) while their normal counterparts are not. Enriched CD34+ cells from peripheral blood and bone marrow of normal individuals were treated with varying doses of HM-27 for 24 hours and then analyzed for cell death as described in the Materials and Methods.
(§4) FIG. 64. MTI-101 induces cell death in primary CD34 progenitor cells from AML patient. […] CD34-positive cells were enriched using immunomagnetic beads in primary AML samples and normal bone marrow aspirates. Cell death was measured by annexin V positivity and FACS analysis.
as §2

H929 cells = test: Growth inhibition by MTT, combination index (CalcuSyn), 72 hours; assay type: cell-based, human; details: H929, 72 hours
Method: FIGS. 59A-59B. H929 cells were treated with varying concentrations of MTI-101 alone or in combination with either chloroquine (FIG. 59A), or bortezomib (FIG. 59B). Following 72 hours of drug treatment growth inhibition was determined by MTT analysis. Data generated were used to calculate the combination index (CI) using CalcuSyn software developed by Chou and Talalay. MTI-101 is synergistic with bortezomib (a proteosome inhibitor) and chloroquine (an inhibitor of autophagy).

[4] = system: pPyk2, pAkt and pErk1/2 in U937 or HL-60 cells; test: Western blot of signaling in AML cells after peptide treatment; assay type: cell-based; details: U937 or HL-60, 50 μM MTI-101, western blot
Method: FIG. 44. U937 or HL-60 cells were treated with 50 μM MTI-101 for the indicated times and pPyk2, pAkt and pErk1/2 were detected by western blot analysis.
Consistent with data obtained with the linear peptide, we show CD44 and VLA-4 are pulled down using biotin conjugated HM-27 as bait.

[5] = system: CD34+ cells from primary AML samples; test: Cell death in primary CD34+ AML cells; assay type: cell-based, human; details: 24 hours
Method: as §3, §4, §2

CCCC[C@@H]1NC(=O)CN(S(C)(=O)=O)CCNC(=O)[C@H](CCCCN)NC(=O)[C@H](CC(C)C)NC(=O)[C@H](CCCCN)NC(=O)[C@H](CC(C)C)NC(=O)[C@H](CCCCN)NC(=O)COC[C@H]2CCCN2C(=O)[C@H](Cc2c[nH]c3ccccc23)NC(=O)[C@H](C)NC(=O)[C@H](C(C)C)NC(=O)[C@H](C(C)C)NC1=O [MTI-101] (Ms-[N(2-Aminoethyl)Gly][Nle]VVAW[dProlinol(O-CH2CO)]KLKLK; lactam 1-C)
IC50 (U937): 38.5 µM
IC50 (NB4): 65 µM
IC50 (HL-60): 76.2 µM
weight loss / signs of toxicity [1]: No weight loss or any overt signs of toxicity were observed
weight loss / signs of toxicity ([1]; listed as c-HYD1): no apparent toxicity
phospho-ERK and CD44-associated PYK2 in MM cells [2]: induces transient phospho-ERK and CD44-associated PYK2 complex in NCI-H929 and U266 MM cells
combination with MEK inhibitor Selumetinib (A549 cells): Synergistic growth
survival (5TGM1 cells): increases survival in the 5TGM1 murine in vivo model
cell death in normal CD34+ cells [3]: devoid of activity in normal CD34-positive cells
cell death in normal CD34+ cells ([3]; listed as HM-27): CD34+ cells from normal individuals are not sensitive to HM-27
combination with bortezomib (H929 cells): synergistic
combination with chloroquine (H929 cells): synergistic
phospho-protein levels in AML cells [4]: increased the levels of pPyk2 and pErk1/2, but not pAKT
phospho-protein levels in AML cells ([4]; listed as HM-27): induced an early activation of Erk1/2 in AML cells
cell death in primary AML CD34+ cells [5]: Primary AML specimens are sensitive to MTI-101 induced cell death
cell death in primary AML CD34+ cells ([5]; listed as HM-27): CD34+ cells from primary AML samples are sensitive to HM-27; also recorded: increased potency in samples from relapsed patients compared to specimens obtained from the newly diagnosed
